# ChEMBL document CHEMBL1201862, “PubChem BioAssay data set” (2004)
#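 96-well plates; 48 h exposure; 5 concentrations. Endpoints by linear interpolation between flanking doses. Not reached: highest tested concentration assigned. Abbreviation: GI50, concentration required for 50% inhibition of growth.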 Active and inactive are the calls of the source. Cut-off read from the data, not from the text of the source: active = GI50 up to about 1.1 µM and inactive = higher.
# What was measured:
# Assay in all cases: growth of human tumour cells (NCI), 48 h
# Hs-578T = test system: Hs-578T
# UACC-257 = test system: UACC-257
# LOX IMVI = test system: LOX IMVI
# RPMI-8226 = test system: RPMI-8226
# HL-60 = test system: HL-60
# HCT-15 = test system: HCT-15
# MDA-MB-231 = test system: MDA-MB-231
# HOP-62 = test system: HOP-62
# OVCAR-5 = test system: OVCAR-5
# SK-MEL-2 = test system: SK-MEL-2
# SR = test system: SR
# KM12 = test system: KM12
# TK-10 = test system: TK-10
# CCRF-CEM = test system: CCRF-CEM
# HCT-116 = test system: HCT-116
# A549 = test system: A549
# A498 = test system: A498
# EKVX = test system: EKVX
# NCI-H23 = test system: NCI-H23
# MOLT-4 = test system: MOLT-4
# SK-MEL-5 = test system: SK-MEL-5
# OVCAR-8 = test system: OVCAR-8
# SF-268 = test system: SF-268
# SNB-19 = test system: SNB-19
# PC-3 = test system: PC-3
# SF-539 = test system: SF-539
# ACHN = test system: ACHN
# MCF7 = test system: MCF7
# HOP-92 = test system: HOP-92
# SF-295 = test system: SF-295
# Malme-3M = test system: Malme-3M
# K562 = test system: K562
# SN12C = test system: SN12C
# MDA-MB-435 = test system: MDA-MB-435
# COLO 205 = test system: COLO 205
# 786-0 = test system: 786-0
# T47D = test system: T47D
# SW-620 = test system: SW-620
# NCI/ADR-RES = test system: NCI/ADR-RES
# HT-29 = test system: HT-29
# NCI-H522 = test system: NCI-H522
# RXF 393 = test system: RXF 393
# CAKI-1 = test system: CAKI-1
# NCI-H226 = test system: NCI-H226
# OVCAR-4 = test system: OVCAR-4
# BT-549 = test system: BT-549
# HCC 2998 = test system: HCC 2998
# M14 = test system: M14
# SK-MEL-28 = test system: SK-MEL-28
# NCI-H460 = test system: NCI-H460
# DU-145 = test system: DU-145
# OVCAR-3 = test system: OVCAR-3
# UACC-62 = test system: UACC-62
# IGROV-1 = test system: IGROV-1
# MDA-N = test system: MDA-N
# U-251 = test system: U-251
# SNB-75 = test system: SNB-75
# UO-31 = test system: UO-31
# SK-OV-3 = test system: SK-OV-3
compound,measurement,setting,value
COc1cc(C2CC(C)(O)Oc3cc4c(cc32)OCO4)cc(OC)c1OC (stereo not given),GI50,Hs-578T,0.263 µM (active)
same,GI50,UACC-257,0.822 µM (active)
same,GI50,LOX IMVI,0.839 µM (active)
same,GI50,RPMI-8226,0.325 µM (active)
same,GI50,HL-60,0.247 µM (active)
same,GI50,HCT-15,0.521 µM
same,GI50,MDA-MB-231,0.252 µM (active)
same,GI50,HOP-62,0.501 µM (active)
same,GI50,OVCAR-5,10.9 µM (inactive)
same,GI50,SK-MEL-2,1.04 µM (active)
same,GI50,SR,0.374 µM (active)
same,GI50,KM12,0.191 µM (active)
same,GI50,TK-10,61 µM (inactive)
same,GI50,CCRF-CEM,0.34 µM (active)
same,GI50,HCT-116,0.449 µM (active)
same,GI50,A549,2.49 µM (inactive)
same,GI50,A498,4.6 µM (inactive)
same,GI50,EKVX,5.36 µM (inactive)
same,GI50,NCI-H23,0.474 µM (active)
same,GI50,MOLT-4,0.451 µM (active)
same,GI50,SK-MEL-5,0.208 µM (active)
same,GI50,OVCAR-8,0.421 µM (active)
same,GI50,SF-268,0.962 µM (active)
same,GI50,SNB-19,0.617 µM (active)
same,GI50,PC-3,0.274 µM (active)
same,GI50,SF-539,0.195 µM (active)
same,GI50,ACHN,0.708 µM (active)
same,GI50,MCF7,0.321 µM (active)
same,GI50,HOP-92,2.56 µM (inactive)
same,GI50,SF-295,0.184 µM (active)
same,GI50,Malme-3M,0.205 µM (active)
same,GI50,K562,0.386 µM (active)
same,GI50,SN12C,0.977 µM (active)
same,GI50,MDA-MB-435,0.169 µM (active)
same,GI50,COLO 205,0.419 µM (active)
same,GI50,786-0,0.375 µM (active)
same,GI50,T47D,0.296 µM (active)
same,GI50,SW-620,0.33 µM (active)
same,GI50,NCI/ADR-RES,0.233 µM (active)
same,GI50,HT-29,0.334 µM (active)
same,GI50,NCI-H522,0.266 µM (active)
same,GI50,RXF 393,0.137 µM (active)
same,GI50,CAKI-1,0.417 µM (active)
same,GI50,NCI-H226,0.891 µM (active)
same,GI50,OVCAR-4,0.938 µM (active)
same,GI50,BT-549,0.583 µM (active)
same,GI50,HCC 2998,1.31 µM (inactive)
same,GI50,M14,0.466 µM (active)
same,GI50,SK-MEL-28,0.569 µM (active)
same,GI50,NCI-H460,0.389 µM (active)
same,GI50,DU-145,0.546 µM (active)
same,GI50,OVCAR-3,0.315 µM (active)
same,GI50,UACC-62,0.23 µM (active)
same,GI50,IGROV-1,0.668 µM (active)
same,GI50,MDA-N,0.166 µM (active)
same,GI50,U-251,0.358 µM (active)
CC(=O)Nc1ccc(-c2nc3ccccc3s2)cc1Br,GI50,Hs-578T,15.7 µM (inactive)
same,GI50,UACC-257,> 100 µM (inactive)
same,GI50,LOX IMVI,71.1 µM (inactive)
same,GI50,RPMI-8226,> 92.9 µM (inactive)
same,GI50,SNB-75,32.1 µM (inactive)
same,GI50,HL-60,> 100 µM (inactive)
same,GI50,HCT-15,> 59.7 µM
same,GI50,MDA-MB-231,39.2 µM (inactive)
same,GI50,HOP-62,7.53 µM (inactive)
same,GI50,SK-MEL-2,> 100 µM (inactive)
same,GI50,UO-31,25.5 µM (inactive)
same,GI50,SR,> 100 µM (inactive)
same,GI50,KM12,> 100 µM (inactive)
same,GI50,TK-10,0.142 µM (active)
same,GI50,CCRF-CEM,> 100 µM (inactive)
same,GI50,HCT-116,20.5 µM (inactive)
same,GI50,A549,> 86.9 µM (inactive)
same,GI50,A498,4.54 µM (inactive)
same,GI50,EKVX,10.5 µM (inactive)
same,GI50,NCI-H23,27.4 µM (inactive)
same,GI50,MOLT-4,> 100 µM (inactive)
same,GI50,SK-MEL-5,> 100 µM (inactive)
same,GI50,OVCAR-8,31 µM (inactive)
same,GI50,SF-268,44.3 µM (inactive)
same,GI50,SNB-19,37.5 µM (inactive)
same,GI50,PC-3,> 100 µM (inactive)
same,GI50,SF-539,27.3 µM (inactive)
same,GI50,ACHN,63.4 µM (inactive)
same,GI50,MCF7,0.141 µM (active)
same,GI50,HOP-92,46 µM (inactive)
same,GI50,SF-295,30.8 µM (inactive)
same,GI50,Malme-3M,> 62.1 µM (inactive)
same,GI50,K562,> 100 µM (inactive)
same,GI50,SN12C,> 78.9 µM (inactive)
same,GI50,MDA-MB-435,> 100 µM (inactive)
same,GI50,COLO 205,> 86.7 µM (inactive)
same,GI50,786-0,35.6 µM (inactive)
same,GI50,T47D,0.687 µM (active)
same,GI50,SW-620,> 100 µM (inactive)
same,GI50,NCI/ADR-RES,73.3 µM (inactive)
same,GI50,HT-29,> 63.7 µM (inactive)
same,GI50,NCI-H522,> 72.3 µM (inactive)
same,GI50,RXF 393,23.4 µM (inactive)
same,GI50,CAKI-1,25.5 µM (inactive)
same,GI50,NCI-H226,2.42 µM (inactive)
same,GI50,OVCAR-4,> 38.7 µM (inactive)
same,GI50,BT-549,29.1 µM (inactive)
same,GI50,HCC 2998,0.29 µM (active)
same,GI50,M14,77.4 µM (inactive)
same,GI50,SK-MEL-28,> 100 µM (inactive)
same,GI50,NCI-H460,> 92.5 µM (inactive)
same,GI50,DU-145,48.2 µM (inactive)
same,GI50,OVCAR-3,0.305 µM (active)
same,GI50,UACC-62,> 72.1 µM (inactive)
same,GI50,IGROV-1,0.0124 µM (active)
same,GI50,SK-OV-3,23.2 µM (inactive)
same,GI50,MDA-N,> 100 µM (inactive)
same,GI50,U-251,46 µM (inactive)
CCOC(=O)C1(C#N)OC(=O)c2cnccc21 (stereo not given),GI50,Hs-578T,> 100 µM (inactive)
same,GI50,UACC-257,> 100 µM (inactive)
same,GI50,LOX IMVI,> 100 µM (inactive)
same,GI50,RPMI-8226,> 100 µM (inactive)
same,GI50,SNB-75,> 100 µM (inactive)
same,GI50,HL-60,> 100 µM (inactive)
same,GI50,HCT-15,> 100 µM
same,GI50,MDA-MB-231,> 100 µM (inactive)
same,GI50,OVCAR-5,> 100 µM (inactive)
same,GI50,SK-MEL-2,> 100 µM (inactive)
same,GI50,UO-31,> 100 µM (inactive)
same,GI50,SR,> 100 µM (inactive)
same,GI50,KM12,> 100 µM (inactive)
same,GI50,CCRF-CEM,> 100 µM (inactive)
same,GI50,HCT-116,> 100 µM (inactive)
same,GI50,A549,> 100 µM (inactive)
same,GI50,A498,> 100 µM (inactive)
same,GI50,EKVX,> 100 µM (inactive)
same,GI50,NCI-H23,> 100 µM (inactive)
same,GI50,MOLT-4,> 100 µM (inactive)
same,GI50,OVCAR-8,> 100 µM (inactive)
same,GI50,SF-268,> 100 µM (inactive)
same,GI50,SNB-19,> 100 µM (inactive)
same,GI50,PC-3,> 100 µM (inactive)
same,GI50,SF-539,> 100 µM (inactive)
same,GI50,ACHN,58.6 µM (inactive)
same,GI50,MCF7,> 100 µM (inactive)
same,GI50,HOP-92,> 100 µM (inactive)
same,GI50,SF-295,> 100 µM (inactive)
same,GI50,Malme-3M,> 100 µM (inactive)
same,GI50,K562,> 100 µM (inactive)
same,GI50,SN12C,> 100 µM (inactive)
same,GI50,MDA-MB-435,> 100 µM (inactive)
same,GI50,COLO 205,> 100 µM (inactive)
same,GI50,786-0,> 100 µM (inactive)
same,GI50,T47D,> 100 µM (inactive)
same,GI50,SW-620,> 100 µM (inactive)
same,GI50,NCI/ADR-RES,> 100 µM (inactive)
same,GI50,HT-29,> 100 µM (inactive)
same,GI50,NCI-H522,> 100 µM (inactive)
same,GI50,RXF 393,> 100 µM (inactive)
same,GI50,CAKI-1,> 100 µM (inactive)
same,GI50,NCI-H226,> 100 µM (inactive)
same,GI50,OVCAR-4,> 100 µM (inactive)
same,GI50,BT-549,> 100 µM (inactive)
same,GI50,HCC 2998,> 100 µM (inactive)
same,GI50,M14,> 100 µM (inactive)
same,GI50,SK-MEL-28,> 100 µM (inactive)
same,GI50,NCI-H460,> 100 µM (inactive)
same,GI50,DU-145,> 100 µM (inactive)
same,GI50,OVCAR-3,> 100 µM (inactive)
same,GI50,UACC-62,> 100 µM (inactive)
same,GI50,IGROV-1,> 100 µM (inactive)
same,GI50,SK-OV-3,> 100 µM (inactive)
same,GI50,MDA-N,> 100 µM (inactive)
same,GI50,U-251,> 100 µM (inactive)
